The numbers were not newly measured in US20150182535A1, “Antimicrobial Composition for the Treatment of Methicillin-resistant Staphylococcus aureus” (priority 2014, published 2015), which cites them from elsewhere.

The data set deals with humans.

On to `C[C@H]1[C@H](N2CCS(=O)(=O)CC2)O[C@@H]2O[C@@]3(C)CC[C@H]4[C@H](C)CC[C@@H]1[C@@]24OO3` [Artemisone], for which, under “general statement in words”, the toxicity result is “very low toxicity”.

As to `C[C@H]1[C@H](OC(=O)CCC(=O)O)O[C@@H]2O[C@@]3(C)CC[C@H]4[C@H](C)CC[C@@H]1[C@@]24OO3` [artesunate], the “safety relative to artemether” value is listed as “twice as safe” and the “toxicity relative to chloroquinine” value was “one-fiftieth”.
